Results: paper PMC11167047 (Cell Death Discovery, 2024)

Assays:
Experiment in all cases: kinome screen (33PanQinase)
Format in all cases: biochemical
AXL = target: T1, AXL (Homo sapiens, UniProt P30530)
T1 construct: purchased Reaction Biology Europe GmbH (formerly ProQinase)
T1 sequence (P30530 26-894): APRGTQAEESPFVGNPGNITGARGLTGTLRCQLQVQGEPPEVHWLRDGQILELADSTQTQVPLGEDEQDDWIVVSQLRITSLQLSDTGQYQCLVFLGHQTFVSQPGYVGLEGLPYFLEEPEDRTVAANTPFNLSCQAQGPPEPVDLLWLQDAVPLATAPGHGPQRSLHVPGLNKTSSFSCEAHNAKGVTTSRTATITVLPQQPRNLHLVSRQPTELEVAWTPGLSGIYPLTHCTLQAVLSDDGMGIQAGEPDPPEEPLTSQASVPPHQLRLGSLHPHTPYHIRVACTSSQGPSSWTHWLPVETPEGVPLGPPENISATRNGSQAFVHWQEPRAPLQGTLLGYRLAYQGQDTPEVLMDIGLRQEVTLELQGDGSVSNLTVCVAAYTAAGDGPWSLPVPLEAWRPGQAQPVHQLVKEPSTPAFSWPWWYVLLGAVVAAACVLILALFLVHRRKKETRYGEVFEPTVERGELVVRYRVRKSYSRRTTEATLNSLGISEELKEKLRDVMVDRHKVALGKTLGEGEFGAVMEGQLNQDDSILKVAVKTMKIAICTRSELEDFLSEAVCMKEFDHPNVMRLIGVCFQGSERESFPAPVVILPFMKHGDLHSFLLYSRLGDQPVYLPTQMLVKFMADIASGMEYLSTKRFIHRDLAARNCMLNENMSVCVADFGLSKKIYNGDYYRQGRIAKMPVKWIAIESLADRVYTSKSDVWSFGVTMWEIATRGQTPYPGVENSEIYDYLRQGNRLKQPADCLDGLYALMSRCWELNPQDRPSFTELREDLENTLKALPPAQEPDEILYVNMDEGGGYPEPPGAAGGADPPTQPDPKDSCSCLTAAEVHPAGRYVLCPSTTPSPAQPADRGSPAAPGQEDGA
Description: (§1) The Kinome Screening was performed by Reaction Biology Europe GmbH (http://reactionbiology.com; Freiburg i. Br., Germany).

ABL2 = target: T2, ABL2 (Homo sapiens, UniProt P42684)
T2 construct: purchased Reaction Biology Europe GmbH (formerly ProQinase)
Description: as §1

DYRK3 = target: T3, DYRK3 (Homo sapiens, UniProt O43781)
T3 construct: purchased Reaction Biology Europe GmbH (formerly ProQinase)
T3 sequence (O43781 1-588): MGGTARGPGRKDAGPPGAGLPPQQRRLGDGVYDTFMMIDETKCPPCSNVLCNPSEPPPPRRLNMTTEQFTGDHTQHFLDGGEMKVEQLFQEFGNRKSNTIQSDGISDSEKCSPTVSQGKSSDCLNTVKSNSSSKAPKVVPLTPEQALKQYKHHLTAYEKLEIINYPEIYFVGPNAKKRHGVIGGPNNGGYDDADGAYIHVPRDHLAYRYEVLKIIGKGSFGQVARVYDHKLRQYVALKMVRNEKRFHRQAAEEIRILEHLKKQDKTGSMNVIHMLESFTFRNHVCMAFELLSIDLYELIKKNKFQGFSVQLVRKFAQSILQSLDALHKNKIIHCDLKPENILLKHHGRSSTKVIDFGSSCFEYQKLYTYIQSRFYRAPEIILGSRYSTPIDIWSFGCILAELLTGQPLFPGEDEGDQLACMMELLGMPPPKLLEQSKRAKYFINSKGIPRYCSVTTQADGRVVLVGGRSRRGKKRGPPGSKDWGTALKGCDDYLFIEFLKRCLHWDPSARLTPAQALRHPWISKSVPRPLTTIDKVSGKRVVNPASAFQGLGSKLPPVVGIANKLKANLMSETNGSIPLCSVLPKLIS
Description: as §1

BUB1B = target: T4, BUB1B (Homo sapiens, UniProt O60566)
T4 construct: purchased Reaction Biology Europe GmbH (formerly ProQinase)
Description: as §1

TYK2 = target: T5, TYK2 (Homo sapiens, UniProt P29597)
T5 construct: purchased Reaction Biology Europe GmbH (formerly ProQinase)
Description: as §1

CDC7/DBF4 = target: T6, CDC7/DBF4 (Homo sapiens, UniProt O00311)
T6 construct: purchased Reaction Biology Europe GmbH (formerly ProQinase)
Description: as §1

COT = target: T7, COT (Homo sapiens, UniProt P41279)
T7 construct: purchased Reaction Biology Europe GmbH (formerly ProQinase)
Description: as §1

SNARK = target: T8, SNARK (Homo sapiens, UniProt Q9H093)
T8 construct: purchased Reaction Biology Europe GmbH (formerly ProQinase)
T8 sequence (Q9H093 1-628): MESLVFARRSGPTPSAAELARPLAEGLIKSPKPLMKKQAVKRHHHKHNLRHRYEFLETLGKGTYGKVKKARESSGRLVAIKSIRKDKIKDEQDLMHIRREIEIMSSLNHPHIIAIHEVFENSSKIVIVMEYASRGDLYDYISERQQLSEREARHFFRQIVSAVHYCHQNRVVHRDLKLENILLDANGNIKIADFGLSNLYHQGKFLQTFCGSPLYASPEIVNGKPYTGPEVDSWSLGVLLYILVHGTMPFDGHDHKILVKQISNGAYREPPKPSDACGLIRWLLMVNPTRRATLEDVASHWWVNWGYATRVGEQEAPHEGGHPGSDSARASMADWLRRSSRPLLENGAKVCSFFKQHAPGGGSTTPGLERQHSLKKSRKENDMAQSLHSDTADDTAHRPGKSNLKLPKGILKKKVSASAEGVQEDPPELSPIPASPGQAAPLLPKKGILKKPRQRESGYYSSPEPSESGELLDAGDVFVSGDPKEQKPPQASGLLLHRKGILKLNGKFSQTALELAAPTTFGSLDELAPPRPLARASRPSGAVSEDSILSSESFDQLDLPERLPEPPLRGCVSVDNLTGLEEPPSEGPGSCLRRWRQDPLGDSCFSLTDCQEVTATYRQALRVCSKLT
Description: as §1

CK1γ2 = target: T9, CK1γ2 (Homo sapiens, UniProt P78368)
T9 construct: purchased Reaction Biology Europe GmbH (formerly ProQinase)
Description: as §1

p38β = target: T10, p38β (Homo sapiens, UniProt Q15759)
T10 construct: purchased Reaction Biology Europe GmbH (formerly ProQinase)
Description: as §1

VRK2 = target: T11, VRK2 (Homo sapiens, UniProt Q86Y07)
T11 construct: purchased Reaction Biology Europe GmbH (formerly ProQinase)
Description: as §1

T2 sequence (P42684 whole entry): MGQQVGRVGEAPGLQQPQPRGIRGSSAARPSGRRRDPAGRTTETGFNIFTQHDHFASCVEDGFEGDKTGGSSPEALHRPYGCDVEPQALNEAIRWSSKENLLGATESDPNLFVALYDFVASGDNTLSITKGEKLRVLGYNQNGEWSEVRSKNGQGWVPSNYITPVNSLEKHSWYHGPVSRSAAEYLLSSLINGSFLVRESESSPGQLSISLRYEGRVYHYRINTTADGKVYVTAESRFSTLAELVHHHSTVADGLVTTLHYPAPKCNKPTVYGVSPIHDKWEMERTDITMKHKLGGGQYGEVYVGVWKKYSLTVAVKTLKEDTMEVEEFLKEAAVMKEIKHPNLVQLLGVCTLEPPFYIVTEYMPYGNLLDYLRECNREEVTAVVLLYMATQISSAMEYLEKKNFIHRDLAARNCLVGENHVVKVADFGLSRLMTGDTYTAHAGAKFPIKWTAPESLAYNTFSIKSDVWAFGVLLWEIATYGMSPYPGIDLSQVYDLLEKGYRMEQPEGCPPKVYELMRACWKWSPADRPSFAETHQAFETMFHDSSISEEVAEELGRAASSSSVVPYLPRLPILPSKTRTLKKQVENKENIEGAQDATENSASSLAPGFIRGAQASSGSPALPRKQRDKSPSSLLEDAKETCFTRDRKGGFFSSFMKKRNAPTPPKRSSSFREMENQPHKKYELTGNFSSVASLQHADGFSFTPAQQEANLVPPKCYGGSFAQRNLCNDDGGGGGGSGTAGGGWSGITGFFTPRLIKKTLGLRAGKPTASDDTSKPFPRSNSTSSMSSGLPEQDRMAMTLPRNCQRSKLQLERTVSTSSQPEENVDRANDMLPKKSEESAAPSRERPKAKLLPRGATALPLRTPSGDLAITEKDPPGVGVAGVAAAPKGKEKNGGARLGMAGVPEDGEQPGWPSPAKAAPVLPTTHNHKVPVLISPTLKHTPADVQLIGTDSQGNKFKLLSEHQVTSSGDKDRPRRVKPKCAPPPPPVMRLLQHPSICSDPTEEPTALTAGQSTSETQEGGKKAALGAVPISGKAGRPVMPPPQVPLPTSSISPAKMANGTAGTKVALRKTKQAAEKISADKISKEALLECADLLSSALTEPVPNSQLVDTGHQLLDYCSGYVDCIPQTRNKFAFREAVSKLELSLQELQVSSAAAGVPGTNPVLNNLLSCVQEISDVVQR
T7 sequence (P41279 whole entry): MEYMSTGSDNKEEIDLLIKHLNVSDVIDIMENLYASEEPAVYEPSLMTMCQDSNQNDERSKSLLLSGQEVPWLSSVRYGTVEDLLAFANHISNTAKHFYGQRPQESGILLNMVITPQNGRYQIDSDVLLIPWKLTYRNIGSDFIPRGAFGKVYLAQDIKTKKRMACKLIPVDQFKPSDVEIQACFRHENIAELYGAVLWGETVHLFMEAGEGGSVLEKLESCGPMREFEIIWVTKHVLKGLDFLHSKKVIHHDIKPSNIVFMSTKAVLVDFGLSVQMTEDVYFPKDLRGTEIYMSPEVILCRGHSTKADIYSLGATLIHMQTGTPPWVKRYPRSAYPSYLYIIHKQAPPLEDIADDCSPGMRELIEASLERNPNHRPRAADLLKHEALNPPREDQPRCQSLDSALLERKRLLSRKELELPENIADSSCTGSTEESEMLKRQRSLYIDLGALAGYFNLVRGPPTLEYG
T9 sequence (P78368 whole entry): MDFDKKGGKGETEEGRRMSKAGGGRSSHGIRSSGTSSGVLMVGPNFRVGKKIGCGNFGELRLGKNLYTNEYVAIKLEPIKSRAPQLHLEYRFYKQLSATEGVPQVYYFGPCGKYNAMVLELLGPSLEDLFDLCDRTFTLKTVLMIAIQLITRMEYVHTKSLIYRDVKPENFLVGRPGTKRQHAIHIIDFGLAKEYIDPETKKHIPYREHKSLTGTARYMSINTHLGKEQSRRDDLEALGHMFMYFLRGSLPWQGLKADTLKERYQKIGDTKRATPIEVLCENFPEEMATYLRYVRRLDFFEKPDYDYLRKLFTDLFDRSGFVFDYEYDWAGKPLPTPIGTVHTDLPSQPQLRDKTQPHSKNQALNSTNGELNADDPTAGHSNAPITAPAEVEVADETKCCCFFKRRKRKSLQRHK
T11 sequence (Q86Y07 whole entry): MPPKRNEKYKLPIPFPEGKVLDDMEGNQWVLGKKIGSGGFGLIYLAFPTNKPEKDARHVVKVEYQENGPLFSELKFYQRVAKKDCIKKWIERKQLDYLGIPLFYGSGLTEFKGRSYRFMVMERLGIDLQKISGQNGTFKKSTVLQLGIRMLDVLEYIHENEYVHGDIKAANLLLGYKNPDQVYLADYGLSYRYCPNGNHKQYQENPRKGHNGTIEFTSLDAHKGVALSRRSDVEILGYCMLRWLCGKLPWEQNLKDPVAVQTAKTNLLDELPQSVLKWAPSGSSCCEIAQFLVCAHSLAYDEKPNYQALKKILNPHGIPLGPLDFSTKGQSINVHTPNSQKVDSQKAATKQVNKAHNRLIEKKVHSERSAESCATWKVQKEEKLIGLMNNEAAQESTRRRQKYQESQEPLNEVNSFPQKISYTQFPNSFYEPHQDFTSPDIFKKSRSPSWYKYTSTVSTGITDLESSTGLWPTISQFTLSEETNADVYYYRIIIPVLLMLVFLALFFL
T5 sequence (P29597 whole entry): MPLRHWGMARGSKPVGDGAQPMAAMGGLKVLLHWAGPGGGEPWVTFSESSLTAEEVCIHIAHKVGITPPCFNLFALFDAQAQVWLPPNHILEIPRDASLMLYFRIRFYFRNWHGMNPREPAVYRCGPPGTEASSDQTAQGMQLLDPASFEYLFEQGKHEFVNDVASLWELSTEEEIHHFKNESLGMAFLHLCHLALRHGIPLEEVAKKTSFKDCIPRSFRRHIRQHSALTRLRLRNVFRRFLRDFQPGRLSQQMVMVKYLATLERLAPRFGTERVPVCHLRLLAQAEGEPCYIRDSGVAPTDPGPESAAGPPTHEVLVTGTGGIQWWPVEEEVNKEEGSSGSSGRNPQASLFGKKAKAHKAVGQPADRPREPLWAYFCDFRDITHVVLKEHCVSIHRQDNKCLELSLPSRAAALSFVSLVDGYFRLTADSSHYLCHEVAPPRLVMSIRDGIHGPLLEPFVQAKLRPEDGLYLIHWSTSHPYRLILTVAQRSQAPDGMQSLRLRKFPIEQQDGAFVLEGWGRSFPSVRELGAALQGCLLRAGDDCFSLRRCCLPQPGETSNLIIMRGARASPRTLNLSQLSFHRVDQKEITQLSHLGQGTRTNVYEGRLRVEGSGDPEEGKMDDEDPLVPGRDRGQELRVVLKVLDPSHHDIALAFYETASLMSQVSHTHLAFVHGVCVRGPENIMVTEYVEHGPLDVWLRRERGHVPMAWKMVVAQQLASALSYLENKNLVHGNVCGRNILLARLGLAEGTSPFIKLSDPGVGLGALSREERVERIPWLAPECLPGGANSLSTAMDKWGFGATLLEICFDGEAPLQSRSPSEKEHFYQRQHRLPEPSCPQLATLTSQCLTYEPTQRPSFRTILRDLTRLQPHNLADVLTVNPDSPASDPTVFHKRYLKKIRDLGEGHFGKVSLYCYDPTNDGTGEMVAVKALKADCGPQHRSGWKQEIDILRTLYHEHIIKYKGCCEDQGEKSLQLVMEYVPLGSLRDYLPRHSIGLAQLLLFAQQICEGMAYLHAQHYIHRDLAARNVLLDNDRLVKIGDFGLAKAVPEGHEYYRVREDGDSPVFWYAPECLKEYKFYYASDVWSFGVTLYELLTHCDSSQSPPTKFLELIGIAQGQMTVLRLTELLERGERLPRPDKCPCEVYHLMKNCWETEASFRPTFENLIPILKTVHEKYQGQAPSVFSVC
T6 sequence (O00311 whole entry): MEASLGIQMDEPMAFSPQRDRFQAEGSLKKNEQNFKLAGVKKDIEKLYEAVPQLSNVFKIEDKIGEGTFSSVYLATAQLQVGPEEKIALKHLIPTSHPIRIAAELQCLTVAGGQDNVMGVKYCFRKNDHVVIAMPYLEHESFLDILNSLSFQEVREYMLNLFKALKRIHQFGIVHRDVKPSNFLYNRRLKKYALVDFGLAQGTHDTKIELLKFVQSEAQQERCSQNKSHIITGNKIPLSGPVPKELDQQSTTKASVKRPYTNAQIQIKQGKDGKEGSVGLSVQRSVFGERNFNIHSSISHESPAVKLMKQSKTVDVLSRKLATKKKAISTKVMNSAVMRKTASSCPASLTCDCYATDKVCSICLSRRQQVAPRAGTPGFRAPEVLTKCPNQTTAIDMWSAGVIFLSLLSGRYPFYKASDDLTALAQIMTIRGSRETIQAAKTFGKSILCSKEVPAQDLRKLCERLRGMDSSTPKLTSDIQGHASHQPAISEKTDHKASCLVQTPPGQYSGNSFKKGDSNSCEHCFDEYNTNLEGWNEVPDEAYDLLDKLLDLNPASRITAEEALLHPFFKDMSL
T6 sequence (Q9UBU7 whole entry partner): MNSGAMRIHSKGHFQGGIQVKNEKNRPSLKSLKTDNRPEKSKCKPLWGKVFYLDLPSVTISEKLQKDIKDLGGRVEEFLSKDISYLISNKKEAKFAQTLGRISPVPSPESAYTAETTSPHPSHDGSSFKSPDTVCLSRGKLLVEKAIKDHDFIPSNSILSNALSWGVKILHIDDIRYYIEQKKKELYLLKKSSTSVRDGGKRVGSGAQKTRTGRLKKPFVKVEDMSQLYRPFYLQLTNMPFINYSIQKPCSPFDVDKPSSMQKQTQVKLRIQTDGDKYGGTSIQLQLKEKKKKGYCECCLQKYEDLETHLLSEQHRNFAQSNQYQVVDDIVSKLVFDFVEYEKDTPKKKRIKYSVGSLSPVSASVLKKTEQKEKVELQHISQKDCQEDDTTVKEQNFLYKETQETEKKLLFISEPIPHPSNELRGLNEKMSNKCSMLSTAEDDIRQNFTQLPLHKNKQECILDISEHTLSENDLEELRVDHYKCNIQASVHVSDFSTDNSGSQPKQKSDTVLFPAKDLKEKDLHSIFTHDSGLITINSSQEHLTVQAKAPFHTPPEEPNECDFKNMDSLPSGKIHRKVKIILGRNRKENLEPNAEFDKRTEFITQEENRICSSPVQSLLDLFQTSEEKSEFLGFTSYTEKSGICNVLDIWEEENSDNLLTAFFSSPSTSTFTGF

SMILES	residual kinase activity (AXL; 0.3 µM)	residual kinase activity (ABL2; 0.3 µM)	residual kinase activity (DYRK3; 0.3 µM)	residual kinase activity (BUB1B; 0.3 µM)	residual kinase activity (TYK2; 0.3 µM)	residual kinase activity (CDC7/DBF4; 0.3 µM)	residual kinase activity (COT; 0.3 µM)	residual kinase activity (SNARK; 0.3 µM)	residual kinase activity (CK1γ2; 0.3 µM)	residual kinase activity (p38β; 0.3 µM)	residual kinase activity (VRK2; 0.3 µM)	other results
COc1ccnc2[nH]cc(-c3cc(N)nc(N)c3)c12 [meriolin 16]	75 % of control	91 % of control	2 % of control	81 % of control	68 % of control	12 % of control	86 % of control	64 % of control	30 % of control	88 % of control	92 % of control	residual kinase activity (AXL; 0.03 µM): 101 % of control; residual kinase activity (ABL2; 0.03 µM): 95 % of control; residual kinase activity (DYRK3; 0.03 µM): 27 % of control; residual kinase activity (BUB1B; 0.03 µM): 88 % of control; residual kinase activity (TYK2; 0.03 µM): 105 % of control; residual kinase activity (CDC7/DBF4; 0.03 µM): 63 % of control; residual kinase activity (COT; 0.03 µM): 104 % of control; residual kinase activity (SNARK; 0.03 µM): 99 % of control; residual kinase activity (CK1γ2; 0.03 µM): 86 % of control; residual kinase activity (p38β; 0.03 µM): 79 % of control; residual kinase activity (VRK2; 0.03 µM): 103 % of control
c1ccc(CNc2cc(-c3c[nH]c4ncccc34)ccn2)cc1 [meriolin 36]	75 % of control	56 % of control	59 % of control	89 % of control	6 % of control	10 % of control	85 % of control	30 % of control	19 % of control	77 % of control	93 % of control	residual kinase activity (AXL; 3 µM): 28 % of control; residual kinase activity (ABL2; 3 µM): 18 % of control; residual kinase activity (DYRK3; 3 µM): 14 % of control; residual kinase activity (BUB1B; 3 µM): 73 % of control; residual kinase activity (TYK2; 3 µM): 1 % of control; residual kinase activity (CDC7/DBF4; 3 µM): 2 % of control; residual kinase activity (COT; 3 µM): 92 % of control; residual kinase activity (SNARK; 3 µM): 5 % of control; residual kinase activity (CK1γ2; 3 µM): 3 % of control; residual kinase activity (p38β; 3 µM): 84 % of control; residual kinase activity (VRK2; 3 µM): 45 % of control
